ChEMBL document CHEMBL4725427, “Synthesis and SAR Studies of 1H-Pyrrolo[2,3-b]pyridine-2-carboxamides as Phosphodiesterase 4B (PDE4B) Inhibitors” (ACS Med Chem Lett, 2020)

How the values were obtained:
[1] = molecular target: D(1A) dopamine receptor (Homo sapiens) (UniProt P21728); experiment: Inhibition of D1 (unknown origin) relative to control; settings: concentration not given here
[2] = molecular target: 5-hydroxytryptamine receptor 2C (Homo sapiens) (UniProt P28335); experiment: Inhibition of 5HT2C (unknown origin) relative to control; settings: concentration not given here
[3] = molecular target: Cone cGMP-specific 3',5'-cyclic phosphodiesterase subunit alpha' (Homo sapiens) (UniProt P51160); experiment: Inhibition of recombinant human N-terminal GST-tagged PDE6C expressed in baculovirus infected Sf9 cells at 10 uM by radioligand assay relative to control
Cone cGMP-specific 3',5'-cyclic phosphodiesterase subunit alpha' (Homo sapiens), sequence (P51160 whole entry): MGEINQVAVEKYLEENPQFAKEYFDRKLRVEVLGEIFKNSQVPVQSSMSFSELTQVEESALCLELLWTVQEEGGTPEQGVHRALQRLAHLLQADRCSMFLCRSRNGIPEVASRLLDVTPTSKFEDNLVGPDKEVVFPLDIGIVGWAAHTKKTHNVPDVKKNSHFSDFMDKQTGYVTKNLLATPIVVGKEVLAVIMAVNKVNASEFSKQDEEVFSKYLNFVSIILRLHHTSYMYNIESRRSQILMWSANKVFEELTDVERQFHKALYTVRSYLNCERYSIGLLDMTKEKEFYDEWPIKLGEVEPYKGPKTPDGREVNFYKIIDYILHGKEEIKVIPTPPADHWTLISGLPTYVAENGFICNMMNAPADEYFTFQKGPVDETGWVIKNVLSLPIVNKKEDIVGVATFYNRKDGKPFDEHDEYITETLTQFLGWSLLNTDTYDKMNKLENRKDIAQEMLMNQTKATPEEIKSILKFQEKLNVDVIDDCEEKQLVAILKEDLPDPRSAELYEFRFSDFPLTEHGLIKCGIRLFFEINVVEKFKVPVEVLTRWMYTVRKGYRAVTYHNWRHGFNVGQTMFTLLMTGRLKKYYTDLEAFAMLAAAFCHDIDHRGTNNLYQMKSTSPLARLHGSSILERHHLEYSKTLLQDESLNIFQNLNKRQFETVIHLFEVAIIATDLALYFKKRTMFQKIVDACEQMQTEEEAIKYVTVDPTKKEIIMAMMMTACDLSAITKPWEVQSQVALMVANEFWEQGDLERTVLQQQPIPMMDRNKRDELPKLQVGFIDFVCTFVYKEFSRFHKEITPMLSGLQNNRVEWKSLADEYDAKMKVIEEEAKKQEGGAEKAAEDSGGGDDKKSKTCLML

[4] = molecular target: High affinity cAMP-specific and IBMX-insensitive 3',5'-cyclic phosphodiesterase 8A (Homo sapiens) (UniProt O60658); experiment: Inhibition of recombinant human N-terminal GST-tagged PDE8A1 expressed in baculovirus infected Sf9 cells at 10 uM by radioligand assay relative to control
High affinity cAMP-specific and IBMX-insensitive 3',5'-cyclic phosphodiesterase 8A (Homo sapiens), sequence (O60658 whole entry): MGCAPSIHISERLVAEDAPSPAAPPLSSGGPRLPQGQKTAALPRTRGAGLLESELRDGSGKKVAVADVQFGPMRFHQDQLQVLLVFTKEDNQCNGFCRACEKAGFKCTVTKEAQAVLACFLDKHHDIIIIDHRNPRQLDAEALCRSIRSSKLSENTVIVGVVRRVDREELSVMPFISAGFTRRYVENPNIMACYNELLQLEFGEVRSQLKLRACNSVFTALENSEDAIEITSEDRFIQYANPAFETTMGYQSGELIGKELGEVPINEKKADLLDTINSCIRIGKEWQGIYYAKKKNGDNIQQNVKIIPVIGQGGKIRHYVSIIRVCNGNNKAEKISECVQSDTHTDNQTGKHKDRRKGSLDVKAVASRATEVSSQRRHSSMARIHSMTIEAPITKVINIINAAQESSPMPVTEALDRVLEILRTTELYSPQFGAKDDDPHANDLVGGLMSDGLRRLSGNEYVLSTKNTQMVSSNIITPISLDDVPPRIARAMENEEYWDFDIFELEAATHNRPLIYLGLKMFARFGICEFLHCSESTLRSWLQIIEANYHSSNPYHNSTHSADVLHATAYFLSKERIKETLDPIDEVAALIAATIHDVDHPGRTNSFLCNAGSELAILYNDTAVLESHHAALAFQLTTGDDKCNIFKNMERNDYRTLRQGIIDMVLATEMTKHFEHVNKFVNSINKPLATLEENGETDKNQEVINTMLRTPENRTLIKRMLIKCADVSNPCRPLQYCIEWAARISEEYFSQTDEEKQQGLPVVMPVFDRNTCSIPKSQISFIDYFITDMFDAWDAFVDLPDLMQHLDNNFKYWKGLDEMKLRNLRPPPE

[5] = Protein binding in mouse plasma assessed as unbound fraction; assay type: ADME, cell-free
[6] = molecular target: 5-hydroxytryptamine receptor 6 (Homo sapiens) (UniProt P50406); experiment: Inhibition of 5HT6 (unknown origin) relative to control; settings: concentration not given here
[7] = molecular target: cGMP-inhibited 3',5'-cyclic phosphodiesterase 3B (Homo sapiens) (UniProt Q13370); experiment: Inhibition of recombinant human N-terminal His-tagged PDE3B (592 to end residues) expressed in baculovirus infected Sf9 cells at 10 uM by radioligand assay relative to control
[8] = molecular target: Alpha-2B adrenergic receptor (Homo sapiens) (UniProt P18089); experiment: Inhibition of adrenoceptor alpha 2B (unknown origin) relative to control; settings: concentration not given here
[9] = molecular target: Beta-2 adrenergic receptor (Homo sapiens) (UniProt P07550); experiment: Inhibition of adrenoceptor beta2 (unknown origin) relative to control; settings: concentration not given here
Beta-2 adrenergic receptor (Homo sapiens), sequence (P07550 whole entry, looked up, the tested form may be a part): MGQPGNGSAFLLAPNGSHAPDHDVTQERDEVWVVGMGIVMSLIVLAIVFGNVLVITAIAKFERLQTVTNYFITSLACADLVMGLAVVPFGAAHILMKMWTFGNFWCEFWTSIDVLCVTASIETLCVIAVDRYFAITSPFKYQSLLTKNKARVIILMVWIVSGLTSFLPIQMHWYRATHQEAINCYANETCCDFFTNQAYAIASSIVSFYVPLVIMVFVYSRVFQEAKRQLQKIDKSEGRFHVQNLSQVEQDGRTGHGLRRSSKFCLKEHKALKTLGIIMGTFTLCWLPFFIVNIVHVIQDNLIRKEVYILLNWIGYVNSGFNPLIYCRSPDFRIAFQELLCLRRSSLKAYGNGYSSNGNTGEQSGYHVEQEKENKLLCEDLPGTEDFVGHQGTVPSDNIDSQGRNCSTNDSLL

[10] = Inhibition of recombinant human N-terminal GST-tagged PDE4A1A (1 to 647 residues) expressed in baculovirus infected Sf9 cells at 10 uM by radioligand assay relative to control
[11] = molecular target: 3',5'-cyclic-AMP phosphodiesterase 4C (Homo sapiens) (UniProt Q08493); experiment: Inhibition of recombinant human N-terminal GST-tagged PDE4C1 expressed in baculovirus infected Sf9 cells at 10 uM by radioligand assay relative to control
[12] = molecular target: 5-hydroxytryptamine receptor 7 (Homo sapiens) (UniProt P34969); experiment: Inhibition of 5HT7A (unknown origin) relative to control; settings: concentration not given here
[13] = molecular target: 3',5'-cyclic-AMP phosphodiesterase 4B (Homo sapiens, UniProt Q07343); experiment: Inhibition of recombinant human C-terminal His-tagged N-terminal GST-tagged PDE4B2 expressed in baculovirus infected Sf9 cells by radioligand binding assay; assay type: cell-based
[14] = molecular target: 5-hydroxytryptamine receptor 1A (Homo sapiens) (UniProt P08908); experiment: Inhibition of 5HT1A (unknown origin) relative to control; settings: concentration not given here
[15] = molecular target: 3',5'-cyclic-AMP phosphodiesterase 4D (Homo sapiens) (UniProt Q08499); experiment: Inhibition of recombinant human N-terminal GST-tagged PDE4D3 expressed in baculovirus infected Sf9 cells at 10 uM by radioligand assay relative to control
[16] = molecular target: Muscarinic acetylcholine receptor M4 (Homo sapiens) (UniProt P08173); experiment: Inhibition of muscarinic M4 receptor (unknown origin) relative to control; settings: concentration not given here
[17] = molecular target: 5-hydroxytryptamine receptor 2B (Homo sapiens) (UniProt P41595); experiment: Inhibition of 5HT2B (unknown origin) relative to control; settings: concentration not given here
5-hydroxytryptamine receptor 2B (Homo sapiens), sequence (P41595 whole entry): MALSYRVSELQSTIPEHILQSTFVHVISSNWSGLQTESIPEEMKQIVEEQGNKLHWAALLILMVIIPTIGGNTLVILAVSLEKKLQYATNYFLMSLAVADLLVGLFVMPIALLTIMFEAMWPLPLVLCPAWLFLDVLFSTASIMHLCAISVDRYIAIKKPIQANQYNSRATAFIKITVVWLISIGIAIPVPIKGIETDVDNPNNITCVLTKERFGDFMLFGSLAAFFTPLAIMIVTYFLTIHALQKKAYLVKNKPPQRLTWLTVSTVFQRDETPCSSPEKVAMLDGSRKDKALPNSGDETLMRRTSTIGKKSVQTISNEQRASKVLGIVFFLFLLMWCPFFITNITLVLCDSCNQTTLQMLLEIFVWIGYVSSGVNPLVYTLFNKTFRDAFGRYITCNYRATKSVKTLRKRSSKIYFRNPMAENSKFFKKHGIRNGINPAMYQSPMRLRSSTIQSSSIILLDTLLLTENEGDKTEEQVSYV

[18] = molecular target: Sigma non-opioid intracellular receptor 1 (Homo sapiens) (UniProt Q99720); experiment: Inhibition of sigma1 receptor (unknown origin) relative to control; settings: concentration not given here
[19] = molecular target: cGMP-inhibited 3',5'-cyclic phosphodiesterase 3A (Homo sapiens) (UniProt Q14432); experiment: Inhibition of recombinant human N-terminal His-tagged PDE3A (669 to 1141 end residues) expressed in baculovirus infected Sf9 cells at 10 uM by radioligand assay relative to control
cGMP-inhibited 3',5'-cyclic phosphodiesterase 3A (Homo sapiens), sequence (Q14432 whole entry): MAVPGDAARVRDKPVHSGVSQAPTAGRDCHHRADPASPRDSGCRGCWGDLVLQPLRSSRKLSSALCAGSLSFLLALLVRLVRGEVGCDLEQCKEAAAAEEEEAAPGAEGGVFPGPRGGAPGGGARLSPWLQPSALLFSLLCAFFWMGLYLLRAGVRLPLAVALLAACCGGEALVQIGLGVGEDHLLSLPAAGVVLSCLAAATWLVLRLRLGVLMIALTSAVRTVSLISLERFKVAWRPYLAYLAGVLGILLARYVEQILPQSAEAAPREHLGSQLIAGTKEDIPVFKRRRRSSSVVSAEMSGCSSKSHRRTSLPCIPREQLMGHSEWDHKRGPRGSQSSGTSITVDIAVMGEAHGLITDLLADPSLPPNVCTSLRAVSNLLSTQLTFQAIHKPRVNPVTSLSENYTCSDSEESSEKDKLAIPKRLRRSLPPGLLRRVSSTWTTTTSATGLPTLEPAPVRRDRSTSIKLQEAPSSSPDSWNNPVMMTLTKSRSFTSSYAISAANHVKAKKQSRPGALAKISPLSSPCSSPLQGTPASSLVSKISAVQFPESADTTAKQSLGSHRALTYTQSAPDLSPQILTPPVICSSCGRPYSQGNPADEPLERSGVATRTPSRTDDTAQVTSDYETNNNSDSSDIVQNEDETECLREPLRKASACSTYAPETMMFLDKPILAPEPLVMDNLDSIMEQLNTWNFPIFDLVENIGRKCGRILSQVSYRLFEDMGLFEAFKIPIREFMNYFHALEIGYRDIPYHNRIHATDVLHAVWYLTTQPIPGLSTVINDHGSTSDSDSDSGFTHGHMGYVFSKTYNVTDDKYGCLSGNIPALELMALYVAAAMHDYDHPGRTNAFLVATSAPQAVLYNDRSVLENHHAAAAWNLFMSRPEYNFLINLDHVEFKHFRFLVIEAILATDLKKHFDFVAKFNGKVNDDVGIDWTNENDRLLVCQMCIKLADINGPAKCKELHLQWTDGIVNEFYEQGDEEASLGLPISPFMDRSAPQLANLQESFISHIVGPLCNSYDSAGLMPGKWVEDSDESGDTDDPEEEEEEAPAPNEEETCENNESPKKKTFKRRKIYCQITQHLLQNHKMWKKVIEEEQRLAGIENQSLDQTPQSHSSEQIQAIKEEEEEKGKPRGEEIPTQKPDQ

[20] = molecular target: 5-hydroxytryptamine receptor 1B (Homo sapiens) (UniProt P28222); experiment: Inhibition of 5HT1B (unknown origin) relative to control; settings: concentration not given here
5-hydroxytryptamine receptor 1B (Homo sapiens), sequence (P28222 whole entry, the tested form may be a part): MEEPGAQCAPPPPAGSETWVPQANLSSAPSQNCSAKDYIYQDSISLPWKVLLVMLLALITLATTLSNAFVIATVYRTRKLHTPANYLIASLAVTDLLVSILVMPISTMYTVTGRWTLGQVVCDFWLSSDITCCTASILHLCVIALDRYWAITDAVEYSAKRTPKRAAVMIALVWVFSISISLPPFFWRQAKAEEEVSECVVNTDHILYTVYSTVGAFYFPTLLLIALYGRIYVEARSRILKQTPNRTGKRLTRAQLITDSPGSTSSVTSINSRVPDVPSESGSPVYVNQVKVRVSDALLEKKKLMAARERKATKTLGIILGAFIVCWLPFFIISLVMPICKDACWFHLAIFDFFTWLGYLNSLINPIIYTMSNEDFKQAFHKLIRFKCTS

[21] = molecular target: cAMP and cAMP-inhibited cGMP 3',5'-cyclic phosphodiesterase 10A (Homo sapiens) (UniProt Q9Y233); experiment: Inhibition of recombinant human N-terminal GST-tagged PDE10A1 (2 to 789 residues) expressed in baculovirus infected Sf9 cells at 10 uM by radioligand assay relative to control
[22] = molecular target: Kappa-type opioid receptor (Homo sapiens) (UniProt P41145); experiment: Inhibition of KOR (unknown origin) relative to control; settings: concentration not given here
Kappa-type opioid receptor (Homo sapiens), sequence (P41145 whole entry): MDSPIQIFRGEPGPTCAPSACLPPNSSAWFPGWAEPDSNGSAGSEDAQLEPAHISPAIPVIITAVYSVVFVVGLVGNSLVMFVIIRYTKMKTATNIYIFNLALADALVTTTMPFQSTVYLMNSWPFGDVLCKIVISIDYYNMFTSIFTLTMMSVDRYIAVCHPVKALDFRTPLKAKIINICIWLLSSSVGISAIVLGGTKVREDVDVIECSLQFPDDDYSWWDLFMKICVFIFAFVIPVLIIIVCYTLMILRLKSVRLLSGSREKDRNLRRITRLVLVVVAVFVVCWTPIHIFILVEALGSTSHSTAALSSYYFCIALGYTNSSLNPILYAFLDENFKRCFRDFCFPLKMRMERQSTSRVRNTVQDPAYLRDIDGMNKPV

[23] = molecular target: cGMP-specific 3',5'-cyclic phosphodiesterase (Homo sapiens) (UniProt O76074); experiment: Inhibition of recombinant human N-terminal GST-tagged PDE5A1 expressed in baculovirus infected Sf9 cells at 10 uM by radioligand assay relative to control
[24] = molecular target: Dual specificity calcium/calmodulin-dependent 3',5'-cyclic nucleotide phosphodiesterase 1A (Homo sapiens) (UniProt P54750); experiment: Inhibition of recombinant human N-terminal GST-tagged PDE1A1 expressed in baculovirus infected Sf9 cells at 10 uM by radioligand assay relative to control

D(1A) dopamine receptor (Homo sapiens), sequence (P21728 whole entry): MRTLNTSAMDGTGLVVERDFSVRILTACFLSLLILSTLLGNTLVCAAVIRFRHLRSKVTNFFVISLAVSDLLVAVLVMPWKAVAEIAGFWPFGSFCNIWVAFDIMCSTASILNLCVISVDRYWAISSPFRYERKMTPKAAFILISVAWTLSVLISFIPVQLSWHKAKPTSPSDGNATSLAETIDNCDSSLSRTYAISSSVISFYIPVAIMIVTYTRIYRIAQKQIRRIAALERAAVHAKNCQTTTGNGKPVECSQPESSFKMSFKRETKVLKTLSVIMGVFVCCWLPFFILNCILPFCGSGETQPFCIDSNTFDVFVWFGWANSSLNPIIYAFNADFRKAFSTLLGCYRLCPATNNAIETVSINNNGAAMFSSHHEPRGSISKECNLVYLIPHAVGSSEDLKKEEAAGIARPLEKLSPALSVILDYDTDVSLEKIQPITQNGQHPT

SMILES: O=C(c1nc2cccnc2n1-c1ccc(Cl)c(Cl)c1)N1CC(F)(F)C1
- inhibition [1]: < 50%
- inhibition [2]: 59%
- inhibition [3]: < 50%
- inhibition [4]: < 50%
- fraction unbound [5]: 0.027
- inhibition [6]: < 50%
- inhibition [7]: 87%
- inhibition [8]: < 50%
- inhibition [9]: < 50%
- inhibition [10]: < 50%
- inhibition [11]: < 50%
- inhibition [12]: < 50%
- IC50 [13]: 140 nM
- inhibition [14]: < 50%
- inhibition [15]: < 50%
- inhibition [16]: < 50%
- inhibition [17]: < 50%
- inhibition [18]: < 50%
- inhibition [19]: < 50%
- inhibition [20]: < 50%
- inhibition [21]: < 50%
- inhibition [22]: < 50%
- inhibition [23]: < 50%
- inhibition [24]: < 50%
